Assay [1] has as its system casein. Kind of assay: Relative ratio of clotting to proteolytic activity, casein. In kind it is biochemical. The settings on record: 30° C., pH 6.2 of milk clotting assay, calf rennet = 1.00. The protocol: (§1) The clotting activity of milk coagulants was determined according to the method of Berridge, with modifications (1952, The Analyst, 77: 57). To 0.05 ml (unless otherwise mentioned) of milk coagulant placed in a 25-ml test tube was added 10 ml of tempered substrate solution. The substrate solution was 10% reconstituted skim milk powder containing 10 mM CaCl2. The pH of this substrate solution was approximately 6.2. Where indicated, the pH of the substrate solution was adjusted with 0.5 N NaOH or HCl while agitating. The mixture of coagulant and substrate was then incubated at 30° C. water bath unless specifically indicated. Near the expected clotting time, which was determined by a preliminary test, the test tube was tilted ~60° at an interval of 5 seconds. The moment of the first flake appearance of the liquid flowing down the tube was recorded as milk clotting time.
(§2) Milk coagulants were assayed for proteolytic activity according to the method described in Example 1.
(§3) The ratio of milk clotting activity to proteolytic activity against hemoglobin is often used to assess the suitability of enzymes as rennet substitute (Green, 1972, supra). Clam rennet had considerably lower ratio of clotting to […] activity at optimum pH of each individual enzyme. […]

The test system of assay [2] is Hemoglobin. The conditions noted are these: pH 2.0, 37° C., Sigma lot; cited from earlier work.
The subject of assay [3] is Hemoglobin. Kind of assay: Relative ratio of clotting to proteolytic activity, hemoglobin. In kind it is biochemical. The conditions noted are these: 30° C., optimum pH of each enzyme (in parentheses), calf rennet = 1.00. The procedure: as §1, §2, §3
Assay [4] is described as follows: Milk clotting time determination. In kind it is biochemical. The protocol:
as §1

The source of these data is US4677069A, “Clam derived proteinases” (priority 1984, dated 1987).

In the case of “Porcine pepsin: two-time crystallized and lyophilized powder of porcine pepsin (Sigma Co.)”, in assay [1], the “relative ratio of clotting to proteolytic activity, Casein” value was 0.24. For the same substance, the “specification of the pepsin lot” value in assay [2] was 2900 units/mg solid. The “relative ratio of clotting to proteolytic activity, Hemoglobin” value in assay [3] was 0.30. Besides, in assay [4] (1/tc vs C, equation 3-3), the “Linear regression X-Intercept (Table 17)” value came to 0.0019 and the “Linear regression Y-Intercept (Table 17)” value is -0.00013. Further, the “Linear regression Slope (Table 17)” value in assay [4] (1/tc vs C, equation 3-3, FIG. 7) was determined as 0.06597. Besides, the “Linear regression Slope (Table 16)” value in assay [4] (clotting time tc vs 1/C, equation 3-2) was 16.5. Besides, the “milk clotting at pH 6.8 or above” value in assay [4] (milk pH 6.8 or above) is “unable to clot milk”. Also, in assay [4] (tc vs 1/C, equation 3-2), the “Linear regression X-Intercept (Table 16)” value was found to be 1.9 and the “Linear regression Y-Intercept (Table 16)” value is listed as -8.7.
